Converted amounts (≈) assume the structure as drawn. “Also recorded” adds a separate entry of the source. Where two headings read alike, the source gives them in different places. Marks after values point to notes of the source that are not given here.
Experiments:
E. faecium 49624 = format: cell-based
E. faecium CL4931 (VanA) = format: cell-based
E. faecalis 29212 = format: cell-based
[1] = test system: E. faecalis CL4877 (VanB); format: cell-based
S. aureus 29213 = format: cell-based
transglycosylase [2] = experiment: Transglycosylase assay: peptidoglycan formation from lipid II accumulated in situ in bacterial membranes; format: biochemical, E. coli; settings: for inhibition of peptidoglycan formation: inhibitor added after formation of lipid II, Triton X-100 removed, 2 hours incubation, paper chromatography
Procedure: Reactions were performed in the following buffer: 50 mM Tris (pH=8.0), 42 mM MgAc, 208 mM KCl, and 0.1% Triton X-100®. Each reaction was performed in a 50 ul reaction volume, containing 25 μg French Pressed bacterial membranes, 0.5 nmoles biotinylated UDP-MurNAc-pentapeptide 10% DMSO final concentration (added in conjunction with inhibitor), and 0.5 uM 14C-GlcNAc (≈20,000 CPM). All components except 14C-GlcNAc were pre-incubated together for 10 min at room temperature. The reactions were incubated an additional 1 hour after addition of ^14C-GlcNAc.
To make the reaction volume more manageable, the Triton was removed with the addition of Detergent-Out resin (Geno-Technology, St. Louis, Mo.). After binding up the inhibiting detergent, the reaction was further incubated for 2 hours to allow for transglycosylation to proceed.
The above-described methods of the invention were used to analyze the activity of three inhibitors. The assay included separate samples of tunicamycin, moenomycin, or bacitracin in various concentrations. These inhibitors were added to their respective samples after formation of lipid II, with the subsequent removal of the transglycosylation blocker Triton X-100®. After 2 hours incubation, aliquots of the solubilized products were analyzed by ascending paper chromatography. The amount of lipid II converted into peptidoglycan is represented by the amount of radioactivity measured in CPM remaining at the origin for each reaction.
Compounds TS0517 (chlorobiphenyl-vancomycin), TS0518 (chlorobiphenyl-desleucyl-vancomycin), TS0523, TS1017, and TS30663 were all assayed using the above-described assay, in which the inhibitors were added to their respective samples after formation of lipid II, with the subsequent removal of Triton X-100®. After 2 hours incubation, aliquots of the solubilized products were analyzed by ascending paper chromatography.

lipid II formation = experiment: Lipid II formation assay in bacterial membranes; format: biochemical, E. coli; settings: for inhibition of lipid II formation: inhibitors added with labeled UDP-GlcNAc and UDP-MurNAc-tetrapeptide (data not shown)
transglycosylase [3] = experiment: Transglycosylase assay: peptidoglycan formation from lipid II accumulated in situ in bacterial membranes; format: biochemical, E. coli; settings: UDP-MurNAc-tetrapeptide substrate, inhibitors added after Triton X-100 removal, 2 hour incubation
peptidoglycan synthesis = settings: at 100 μg/ml, A. viridens membranes; cited from earlier work
[4] = E. faecium 49624, vancomycin-sensitive
[5] = E. faecium CL4931 (VanA), vancomycin resistant
[6] = E. faecalis 29212, vancomycin-sensitive
[7] = E. faecalis CL4877 (VanB), vancomycin resistant
[8] = S. aureus 29213, vancomycin-sensitive

Row | Molecule | MIC (E. faecium 49624; [4]) | MIC (E. faecium CL4931 (VanA); [5]) | MIC (E. faecalis 29212; [6]) | MIC [1, 7] | MIC (S. aureus 29213; [8]) | inhibition of peptidoglycan formation (transglycosylase [2]) | inhibition of lipid II formation (lipid II formation) | inhibition of peptidoglycan synthesis (transglycosylase [3]) | inhibition of peptidoglycan formation (transglycosylase [2]; listed as tunicamycin) | potency in E. coli system relative to that measured in Allen et al. using A. viridens (transglycosylase [2]; UDP-MurNAc-pentapeptide or UDP-MurNAc-tetrapeptide) | inhibition of peptidoglycan synthesis, UDP-MurNAc-pentapeptide vs UDP-MurNAc-tetrapeptide (transglycosylase [2]; comparison of the two precursor substrates) | IC50 / effect compared with assay without transglycosylation blocker (transglycosylase [2]; with vs without Triton X-100 blocker) | inhibition of peptidoglycan synthesis (peptidoglycan synthesis) | MIC (E. faecium 49624; Enterococcus faecium, 49624) | MIC (E. faecium CL4931 (VanA); Enterococcus faecium) | MIC (E. faecalis 29212; Enterococcus faecalis, 29212) | MIC ([1]; Enterococcus faecalis) | MIC (S. aureus 29213; Staphylococcus aureus, 29213) | inhibition of lipid II formation in vitro (lipid II formation; substrate with D-ala-D-ala dipeptide moiety)
1 | C[C@@H]1O[C@@H](O[C@H]2[C@H](Oc3c4cc5cc3Oc3ccc(cc3Cl)[C@@H](O)[C@@H](N)C(=O)N[C@@H](CC(N)=O)C(=O)N[C@H]5C(=O)NC3C(=O)NC(C(=O)N[C@H](C(=O)O)c5cc(O)cc(O)c5-c5cc3ccc5O)[C@H](O)c3ccc(c(Cl)c3)O4)O[C@H](CO)[C@@H](O)[C@@H]2O)C[C@](C)(NCc2ccc(-c3ccc(Cl)cc3)cc2)[C@@H]1O (mixture of isomers) [CBP-dl-vancomycin, chlorobiphenyl-desleucyl-vancomycin] | 1.56 µg/mL (≈ 1.02 µM) | 12.5 µg/mL (≈ 8.21 µM) | 3.12 µg/mL (≈ 2.05 µM) | 25 µg/mL (≈ 16.4 µM) | 3.12 µg/mL (≈ 2.05 µM) | showed inhibition of peptidoglycan formation | no inhibition of lipid II formation | far more effective | – | – | – | – | – | – | – | – | – | – | –
2 | tunicamycin | – | – | – | – | – | no measurable effect | – | – | had no effect | – | – | – | – | – | – | – | – | – | –
3 | moenomycin | >200^c μg/ml | 0.25 µg/mL | 0.078 µg/mL | 0.13 µg/mL | 0.05 µg/mL | sensitive | – | – | – | 4 orders of magnitude | equipotent inhibition | identical IC50 values; also recorded: substantially the same | < 35% | – | – | – | – | – | –
4 | CN[C@H](CC(C)C)C(=O)N[C@H]1C(=O)N[C@@H](CC(N)=O)C(=O)N[C@H]2C(=O)N[C@H]3C(=O)N[C@H](C(=O)N[C@H](C(=O)O)c4cc(O)cc(O)c4-c4cc3ccc4O)[C@H](O)c3ccc(c(Cl)c3)Oc3cc2cc(c3O[C@@H]2O[C@H](CO)[C@@H](O)[C@H](O)[C@H]2O[C@H]2C[C@](C)(NCc3ccc(-c4ccc(Cl)cc4)cc3)[C@H](O)[C@H](C)O2)Oc2ccc(cc2Cl)[C@H]1O [CBP-vancomycin, chlorobiphenyl-vancomycin] | 0.062 µg/mL (≈ 0.0376 µM) | 12.5 µg/mL (≈ 7.58 µM) | 0.25 µg/mL (≈ 0.152 µM) | 12.5 µg/mL (≈ 7.58 µM) | 0.25 µg/mL (≈ 0.152 µM) | showed inhibition of peptidoglycan formation | no inhibition of lipid II formation | far more effective | – | – | – | – | – | – | – | – | – | – | –
5 | CN[C@H](CC(C)C)C(=O)N[C@H]1C(=O)N[C@@H](CC(N)=O)C(=O)N[C@H]2C(=O)N[C@H]3C(=O)N[C@H](C(=O)N[C@H](C(=O)O)c4cc(O)cc(O)c4-c4cc3ccc4O)[C@H](O)c3ccc(c(Cl)c3)Oc3cc2cc(c3O[C@@H]2O[C@H](CO)[C@@H](O)[C@H](O)[C@H]2O[C@H]2C[C@](C)(N)[C@H](O)[C@H](C)O2)Oc2ccc(cc2Cl)[C@H]1O [Vancomycin, vancomycin] | – | – | – | – | – | – | – | only minimal inhibition | – | – | – | – | – | 1.25 µg/mL (≈ 0.863 µM) | 1250 µg/mL (≈ 863 µM) | 3.12 µg/mL (≈ 2.15 µM) | 1250 µg/mL (≈ 863 µM) | 1.25 µg/mL (≈ 0.863 µM) | capable of inhibiting the formation of lipid II in vitro

From US6913895B1, “Methods for assaying transglycosylase reactions, and for identifying inhibitors thereof” (Advanced Medicine East, Inc., priority 1999, dated 2005)
